In patent US20230277449A1, “ORAL CAVITY POLYMERIC DELIVERY SYSTEMS” (YISSUM RESEARCH DEVELOPMENT COMPANY OF THE HEBREW …, priority 2020, published 2023):
Values joined by “and” are separate entries in the source; they are usually repeats but may differ in a detail not shown here. Equal values may be shown once. Read-outs that look alike come from different tables or passages of the source. One block for each compound: values may come before it.

Tests used:
[1] = pig, in vivo, iv, 1 mg/kg
[2] = Monitored vital parameters after CBD and TPH administration to the mucosa of pigs; format: in vivo, pig; conditions: median (lowest - highest)
Text: Israel. […] Pigs were fasted overnight before the experiments. […] They were positioned on their back.

[3] = cited from earlier work
[4] = cited from earlier work; remark: listed apart in the source
[5] = In-vivo oral mucosal administration of CBD and TPH in mucoadhesive shell to pigs
[6] = Ex-vivo permeability of APO, MTP and ATN in Ussing diffusion chamber; format: in vitro ADME, pig; conditions: for Papp at 0.1 mM: n=3
Text: Each chamber includes a heating block for temperature control and needle valves for adjustment of carbogen gas flow for oxygenation and gas lift stirring. Buccal tissues of female pigs, ~100 kg, were used in the experiments. Pigs were exposed to anesthetic agents, antibiotics, contrast agents and sacrificed by over exposure to KC1. […] Immediately following euthanasia, buccal tissue was removed and placed in ice-cold modified Ringer’s buffer (pH 7.4). Buccal mucosa segments were trimmed to 800-1000 µm by surgical scissors and tweezers and mounted into Ussing diffusion chambers. The exposed tissue surface area was 0.5 cm^2 and buffered solutions volume in each cell was 3 ml. The system was preheated to 35° C. Modified Ringer buffer was added to the receiver compartment and simulated saliva buffer to the donor side. The tissue oxygenation and the solution mixing were performed by bubbling with carbogen gas. The system was equilibrated for 30 min followed by replacing the solutions and adding 20 µl of the test solutions to the donor side of the chamber to commence the experiment.
Solutions were freshly prepared on the days of the experiments. […] When testing the effect of organic solvents, 100 µl of the simulated saliva in the donor chamber were replaced by 100 µl of 1:1EtOH:PG solution. When testing the effect of NLF 70 µl of the simulated saliva in the donor chamber were replaced by 70 µl of NLF. […] The constituents are melted at 37° C. and mixed until a clear yellow homogenous solution is obtained.
3.1.3 Experimental protocol: 100 µl samples were taken from receiver compartment at the beginning of the experiments, at half an hour and every hour until the end of the experiments. 100 µl of fresh Ringer’s buffer solution were added each time to receiver compartment. The dilution of the concentration of tested substances in the receiver compartment was accounted for. […] All samples were stored at -20° C. pending analysis.
The analysis conditions were as follows: XTerra MS (Waters Inc.) C18 Column (3.5 µm, 2.1 mm × 100 mm), temperature 45° C., flow rate 0.2 ml/min and mobile phase with a linear gradient as detailed in Table 23.
Statistical significance was stated for p<0.05. […] Papp calculation and simulations of steady state plasma levels for in-vivo testing
Apparent permeability (Papp) is calculated by Eq. 5: […]

[7] = in vitro; conditions: female, pig, pH 7.4
[8] = in vivo
[9] = Insulin release from mucoadhesive tablets in physiologic media; format: physicochemical
Method: Peptides or proteins stabilized or encapsulated into nanoparticles, microparticles or liposomes were mixed in CP and HPC as described above and compressed into tablets. In a typical example, insulin zinc salt powder at 1% of the solids was added to the tablet composition and compressed into tablets. Insulin was released for 10 h from the tablets when placed in physiologic media. PLGA microspheres loaded with 50% insulin prepared by precipitation of concentrated alcoholic-dichloromethane solution into an anti-solvent, heptane. Particles at 10% of the non-active agents were added to the tablet powder and compressed into tablets. Anti-inflammatory protein such as Adiponectin, antimicrobial and antiviral proteins are also considered for buccal delivery.

Compound: CN1CCc2cccc3c2C1CC1=C3C(=O)C(=O)C=C1 (centres unmarked) [APO-quinone]
half-lives of metabolites [1]: 25.5 (±2.0) min

Compound: C=C(C)[C@@H]1CCC(C)=C[C@H]1c1c(O)cc(CCCCC)cc1O [CBD, cannabidiol]
Diastolic blood press (mmHg) ([2]; CBD with TPH): 37 (29 - 46) mmHg
Heart rate (beats/min) ([2]; CBD with TPH): 98 (79 - 123) beats/min
O2 satur (%) ([2]; CBD with TPH): 99 (90 - 100) %
Respiration rate (min^-1) ([2]; CBD with TPH): 10 (10-13) min^-1
Systolic blood press (mmHg) ([2]; CBD with TPH): 77 (68 - 87) mmHg
Rectal temp (°C) ([2]; CBD ~0.42 mg/kg with TPH ~0.11 mg/kg, three pigs): 37.4 (36.8 - 38.8) °C
aqueous solubility [3]: ~ 12 µg/ml and ~ 0.04 mM
log P [3]: ~ 6
steady state volume of distribution ([4]; humans, IV administration): 30 L/kg
Css ([5]; ~0.42 mg/kg CBD, 30.0 mg/ml, 8 h exposure): not reached

Papp lower at pH 5.9 than at pH 7.4 [6]: 2 fold
Papp ([6]; female, pig, pH 7.4 with 3.33% v/v of 1:1 ethanol: propylene glycol solution, read-out: Apparent permeability (Papp)): 7.24 ×10⁻⁶ cm/s
Papp at 0.1 mM ([6]; female, pig, simulated saliva pH 5.9, mean (±SD), read-out: Apparent permeability (Papp)): 1.11 ×10⁻⁶ cm/s
Papp at 0.1 mM ([6]; female, pig, simulated saliva pH 7.4, standard 0.1 mM, mean (±SD), read-out: Apparent permeability (Papp)): 2.48 ×10⁻⁶ cm/s
Papp at 6 h [7]: 1.02 ×10⁻⁶ cm/s
Papp at 6 h, 34 µg/ml [7]: 9.89 ×10⁻⁶ cm/s
Compound: COCCc1ccc(OCC(O)CNC(C)C)cc1 (centres unmarked) [MTP, metoprolol]

Compound: Cn1c(=O)c2[nH]cnc2n(C)c1=O [TPH, theophylline]
CL slower than CBD [8]: ~ 50 fold
log P [3]: ~ 0
CL ([4]; in vivo): 0.283 to 0.67 mL/min/kg
TPH plateau higher than the highest plasma level of CBD ([5]; considering the molar dose administered): 300 fold
time to plateau of plasma levels (lag-time) ([5]; ~0.11 mg/kg TPH, 8.0 mg/ml, 1.58 cm^2, three pigs): 5 h

Compound: Insulin: insulin zinc salt powder at 1% of the solids in CP and HPC tablets
duration of insulin release [9]: 10 h
